Data from patent US20060063711A1, “Use of sglt homolog” (priority 2002, published 2006).

Columns and labels:
[1] = target: T1, human SGLT2 (hSGLT2) (Homo sapiens, UniProt P31639); assay: α-methyl glucose uptake in CHO cells expressing hSGLT2; assay type: cell-based; conditions: control = NMDG without NaCl
T1 construct: expressed in transfected cells; host or cells: CHO cells
T1 sequence (P31639 1-672): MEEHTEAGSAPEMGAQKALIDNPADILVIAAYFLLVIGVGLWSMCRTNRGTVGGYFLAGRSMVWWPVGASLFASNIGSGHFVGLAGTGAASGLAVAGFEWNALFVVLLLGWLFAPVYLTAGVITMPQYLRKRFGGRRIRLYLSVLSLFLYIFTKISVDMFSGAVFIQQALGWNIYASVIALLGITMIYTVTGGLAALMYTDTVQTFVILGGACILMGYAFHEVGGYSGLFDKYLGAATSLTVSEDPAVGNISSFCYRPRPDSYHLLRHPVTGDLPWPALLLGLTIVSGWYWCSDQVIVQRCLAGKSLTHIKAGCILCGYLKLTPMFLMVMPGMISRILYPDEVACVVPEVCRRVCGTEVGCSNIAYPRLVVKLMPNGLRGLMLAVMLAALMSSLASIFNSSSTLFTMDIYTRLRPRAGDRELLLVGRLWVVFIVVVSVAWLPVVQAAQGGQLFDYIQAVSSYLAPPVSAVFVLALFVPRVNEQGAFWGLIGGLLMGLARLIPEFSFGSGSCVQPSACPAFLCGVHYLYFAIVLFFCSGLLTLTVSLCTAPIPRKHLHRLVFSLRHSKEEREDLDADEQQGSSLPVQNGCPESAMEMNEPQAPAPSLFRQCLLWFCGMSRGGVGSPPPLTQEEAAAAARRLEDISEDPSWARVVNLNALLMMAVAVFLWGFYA
Procedure: The cells were plated on 100 μl of DMEM containing 10% FBS charged in a 96-well plate in a cell density of 1×10^5 cells/well, followed by culturing overnight at 37° C. […] The buffer solution was removed and replaced with 90 μl of the same buffer solution or the buffer solution containing NaCl or NaCl+Phlorizin (Sigma) in place of N-Methyl-D-Glucamine (NMDG). After one-hour incubation with 10 μl of 1 mM α-methyl glucose (containing 0.02 μCi of [^14C]-α-Methyl Glucose (Amersham Pharmacia Biotech)) per well, the cells were washed 3 times with 200 μl of chilled PBS buffer. The radioactivity of ^14C taken up into the cells was counted with 100 μl of a liquid scintillator added per well.

[2] = target: T2, mouse SGLT homolog (mSGLTh) (Mus musculus, UniProt Q8VDT1); assay: α-methyl glucose uptake in CHO cells expressing mSGLTh; assay type: cell-based; conditions: for Uptake of α-Methyl Glucose (% based on Control Group): mSGLTh CHO cells, control = NMDG without NaCl
T2 construct: expressed in transfected cells; host or cells: CHO cells
T2 sequence (Q8VDT1 8-685 limits assumed): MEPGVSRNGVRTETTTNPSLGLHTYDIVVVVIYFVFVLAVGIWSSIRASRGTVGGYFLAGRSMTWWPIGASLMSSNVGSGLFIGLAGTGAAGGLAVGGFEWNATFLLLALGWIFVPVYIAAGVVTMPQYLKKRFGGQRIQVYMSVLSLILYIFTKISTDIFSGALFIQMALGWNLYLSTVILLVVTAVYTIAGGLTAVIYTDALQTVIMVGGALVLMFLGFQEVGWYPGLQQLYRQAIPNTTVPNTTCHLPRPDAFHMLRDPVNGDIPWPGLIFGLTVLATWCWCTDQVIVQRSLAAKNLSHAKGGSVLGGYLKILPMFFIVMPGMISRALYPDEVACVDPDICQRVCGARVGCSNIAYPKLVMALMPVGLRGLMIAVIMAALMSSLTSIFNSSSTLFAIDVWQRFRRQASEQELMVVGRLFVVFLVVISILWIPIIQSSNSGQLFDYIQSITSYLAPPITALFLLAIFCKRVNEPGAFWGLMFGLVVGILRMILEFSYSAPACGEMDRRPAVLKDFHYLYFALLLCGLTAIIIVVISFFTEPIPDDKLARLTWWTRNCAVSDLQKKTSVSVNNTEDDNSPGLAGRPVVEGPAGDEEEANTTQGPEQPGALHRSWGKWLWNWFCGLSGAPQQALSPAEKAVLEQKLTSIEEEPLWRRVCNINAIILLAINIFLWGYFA
Procedure: In accordance with the procedures described in Example 4 of WO 02/53738, the CHO cell lines expressing the human SGLT homolog (hSGLTh), mouse SGLT homolog (mSGLTh), rat SGLT homolog (rSGLTh), human SGLT1 (hSGLT1) and human SGLT2 (hSGLT2) were prepared, respectively, and used for experiments. The experimental uptake of α-methyl glucose, which is a glucose analog selectively taken up into the cells by SGLT, was carried out according to the method described in Am. J. Physiol., 270: G833-G843, 1996 and J. Clin. Invest., 93: 397-404, 1994. The cells were plated on 100 μl of DMEM containing 10% FBS charged in a 96-well plate in a cell density of 1×10^5 cells/well, followed by culturing overnight at 37° C. The cells were washed 3 times with 150 μl of a buffer solution (125 mM N-Methyl-D-Glucamine, 1.2 mM KH2PO4, 2.5 mM CaCl2, 1.2 mM MgSO4, 4 mM Glutamine, 10 mM HEPES (pH 7.2), 0.1 mg/ml BSA) and cultured for an hour in the same buffer solution to remove the remaining glucose. The buffer solution was removed and replaced with 90 μl of the same buffer solution or the buffer solution containing NaCl or NaCl+Phlorizin (Sigma) in place of N-Methyl-D-Glucamine (NMDG). After one-hour incubation with 10 μl of 1 mM α-methyl glucose (containing 0.02 μCi of [^14C]-α-Methyl Glucose (Amersham Pharmacia Biotech)) per well, the cells were washed 3 times with 200 μl of chilled PBS buffer. The radioactivity of ^14C taken up into the cells was counted with 100 μl of a liquid scintillator added per well.

SMILES: O=C(CCc1ccc(O)cc1)c1c(O)cc(O)cc1O[C@@H]1O[C@H](CO)[C@@H](O)[C@H](O)[C@H]1O [phlorizin]
- Uptake of α-Methyl Glucose (% based on Control Group) ([1]; NaCl + 3 μM phlorizin): 139 ± 23%
- Uptake of α-Methyl Glucose (% based on Control Group) ([1]; NaCl + 100 μM phlorizin): 48 ± 8%
- Uptake of α-Methyl Glucose (% based on Control Group) ([2]; NaCl + 15 μM phlorizin): 521 ± 35%
- Uptake of α-Methyl Glucose (% based on Control Group) ([2]; NaCl + 500 μM): 78 ± 8%
- resistance to phlorizin ([2]; mouse SGLT homolog compared with SGLT1 and SGLT2): more potent than in SGLT1 and SGLT2
